According to ChEMBL document CHEMBL1201862, “PubChem BioAssay data set” (2004):
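In this assay, cells in 96-well plates receive the compound at five concentrations for 48 hours. Endpoints are linearly interpolated between the surrounding concentrations. GI50 marks 50% less growth.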 Calls of active or inactive are those of the source. No stated cut-off is given here; in the data, active = GI50 up to about 1.1 µM and inactive = higher.

Assays:
Assay in all cases: growth of human tumour cells (NCI), 48 h
M14 = system: M14
HL-60 = system: HL-60
OVCAR-4 = system: OVCAR-4
PC-3 = system: PC-3
SNB-75 = system: SNB-75
SK-MEL-28 = system: SK-MEL-28
TK-10 = system: TK-10
COLO 205 = system: COLO 205
NCI-H460 = system: NCI-H460
SW-620 = system: SW-620
EKVX = system: EKVX
SK-MEL-2 = system: SK-MEL-2
SR = system: SR
MCF7 = system: MCF7
SNB-19 = system: SNB-19
LOX IMVI = system: LOX IMVI
HCT-116 = system: HCT-116
UACC-257 = system: UACC-257
NCI-H522 = system: NCI-H522
MDA-MB-435 = system: MDA-MB-435

Measured: GI50

C=CCOc1ccc(C2(O)c3ccccc3C3=NCCCN32)cc1 (stereo not given)
inactive: M14 18.1 µM | HL-60 35.7 µM | OVCAR-4 > 71 µM | PC-3 33.5 µM | SNB-75 32 µM | SK-MEL-28 24.5 µM | TK-10 > 100 µM | COLO 205 19.9 µM | NCI-H460 > 100 µM | SW-620 44 µM | EKVX 80.5 µM | SK-MEL-2 20.3 µM | SR 25.2 µM | MCF7 43.7 µM | SNB-19 47.8 µM | LOX IMVI 48.8 µM | HCT-116 49.9 µM | UACC-257 21.4 µM | NCI-H522 21.2 µM | MDA-MB-435 30.1 µM

O=c1c2cc([N+](=O)[O-])ccc2n(Cc2ccccc2)n1Cc1ccccc1
inactive: M14 13.1 µM | HL-60 10.3 µM | OVCAR-4 12.3 µM | PC-3 12 µM | SNB-75 10.4 µM | SK-MEL-28 18.5 µM | TK-10 22.8 µM | COLO 205 18.8 µM | NCI-H460 11.8 µM | SW-620 17.4 µM | EKVX 17.2 µM | SK-MEL-2 12.6 µM | SR 14 µM | MCF7 14 µM | SNB-19 29.6 µM | LOX IMVI 9.2 µM | HCT-116 16.9 µM | UACC-257 10.8 µM | NCI-H522 12 µM | MDA-MB-435 10.8 µM

C1CCN(CCC2CCCCN2)CC1 (stereo not given)
inactive: M14 > 100 µM | HL-60 > 100 µM | OVCAR-4 > 100 µM | PC-3 > 100 µM | SNB-75 > 100 µM | SK-MEL-28 > 100 µM | TK-10 > 100 µM | COLO 205 > 100 µM | NCI-H460 55 µM | SW-620 > 100 µM | EKVX > 100 µM | SK-MEL-2 > 100 µM | SR > 100 µM | MCF7 > 100 µM | SNB-19 > 100 µM | LOX IMVI > 100 µM | HCT-116 > 100 µM | UACC-257 > 100 µM | NCI-H522 > 100 µM | MDA-MB-435 > 100 µM
